Patent US5783434A, “Cathepsin and methods and compositions for inhibition thereof” (priority 1995, dated 1998)
“Also recorded” adds a separate entry of the source. Where a SMILES comes first, the peptide text is derived from it. [ ]: non-standard residue; d: D form. The star is where a group is joined. Cbz = O=C(OCc1ccccc1)*

Legend:
Assay type in all cases: biochemical
[1] = biological target: T1, Cathepsin Y (Homo sapiens, UniProt Q9UBR2); experiment: Inhibition of Cathepsin Y carboxypeptidase activity (o-phthalaldehyde fluorescence, acetylated EGYYGNYGV substrate); settings: pH 4.5
T1 construct: source of the purified preparation not in excerpts; cDNA from human HS683 cells, expressed in 293 cells
Method: (§1) This is accomplished by reacting with the reagent o-phthalaldehyde in an alkaline solution in the presence of 2-mercaptoethanol (Simons, et al., JACS, 98:7098-7099, (1976)).
(§2) A standard curve was constructed by incubating varying concentrations of valine (0-20 μM) in 0.25M sodium borate, pH 10, containing 0.05% 2-mercaptoethanol and 60 μg/mL o-phthalaldehyde, in individual wells of a 96 well microtiter plate. The resulting fluorescence is read in a plate reading Cytofluor (ex 340, em 460 nm). There is a linear increase in the signal proportional to the amount of free valine present (FIG. 7).
(§3) In order to determine the pH optimum of the enzyme, reaction mixtures were set up with enzyme and substrate (0.2 mg/mL) in a total reaction volume of 0.1 mL) in individual wells of 96-well microtiter plates, in 20 mM sodium acetate buffers at different pHs, with 0.1% 2-mercaptoethanol present. Control wells were set identically except for the […] of enzyme. At various time-points after incubation at room temperature, the reactions were quenched by the addition of an equal volume of 0.45M sodium borate, pH 10, with 0.25 mg/mL o-phthalaldehyde, and the fluorescence measured. In the absence of added enzyme, no measurable fluorescence is generated above background, even with extended incubations. In the presence of enzyme, there is a time-dependent increase in fluorescence.
Using this assay at pH 4.5, the ability of a number of compounds to inhibit the activity of Cathepsin Y was tested, by adding the desired concentration of the inhibitor in the incubation mixture along with enzyme and substrate, and measuring the decrease in fluorescence (if any) relative to enzyme control.

[2] = pH optimum of Cathepsin Y carboxypeptidase activity; settings: 20 mM sodium acetate buffers, room temperature
Method: as §1, §2, §3

[3] = biological target: T1, Cathepsin Y; experiment: Cleavage of synthetic oligopeptides by purified Cathepsin Y (RP-HPLC, amino-acid analysis); settings: for cleavage product(s) of parent oligopeptide with Cathepsin Y: 50 μg/mL peptide, pH 4.5 or 5.5, 1 hour, 37° C
Method: In an effort to identify whether the enzyme has other proteolytic activity, a number of randomly selected synthetic oligopeptides were incubated with purified Cathepsin Y at pH 5.5 or 4.5. Specifically, purified Cathepsin Y was incubated with the selected synthetic oligopeptides (50 μg/mL) at either pH 4.5 or pH 5.5, for 1 hour at 37° C. Samples were quenched by the addition of trifluoroacetic acid to 1% final concentration, then analyzed by reverse phase HPLC on a Vydac C18 column, using a gradient of increasing acetonitrile in 0.1% trifluoroacetic acid. Individual peaks (parent and new product(s)) were collected, then analyzed by acid hydrolysis followed by amino-acid analysis.

[4] = tested on: APP; experiment: Proteolytic activity of purified Cathepsin Y on APP preparations; settings: purified recombinant APP constructs and membrane-bound full-length APP
[5] = Activity of Cathepsin Y on synthetic substrates used for assaying Cathepsin B, L or S
[6] = synthetic oligopeptides, pH 4.5 or 5.5

T1 sequence (Q9UBR2 62-303): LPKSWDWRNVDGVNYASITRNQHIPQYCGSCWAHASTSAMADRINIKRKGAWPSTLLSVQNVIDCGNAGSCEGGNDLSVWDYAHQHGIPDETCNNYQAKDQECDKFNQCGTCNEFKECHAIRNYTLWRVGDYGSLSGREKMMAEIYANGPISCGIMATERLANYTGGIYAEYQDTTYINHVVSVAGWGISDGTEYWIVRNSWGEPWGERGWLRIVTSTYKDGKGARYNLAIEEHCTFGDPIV

cleavage product(s) of parent oligopeptide with Cathepsin Y [3] | Compound | inhibition of Cathepsin Y activity [1] | also measured
 | O=C[C@H](Cc1ccccc1)NC(=O)C(c1ccccc1)c1ccccc1 [Example 3] | indicated inhibition of Cathepsin Y activity | 
 | O=C[C@H](Cc1ccccc1)NC(=O)CCCCc1ccccc1 [Example 4] | indicated inhibition of Cathepsin Y activity | 
 | O=C[C@H](Cc1ccccc1)NC(=O)C(=Cc1ccccc1)c1ccccc1 [Example 7] | indicated inhibition of Cathepsin Y activity | 
 | CC(C)[C@H](NC(=O)OCc1ccccc1)C(=O)N[C@H](C=O)Cc1ccccc1 [Example 15] (Cbz-Val-Phe-aldehyde) | indicated inhibition of Cathepsin Y activity | 
 | CC(C)[C@@H](NC(=O)OCc1ccccc1)C(=O)N[C@H](C=O)Cc1ccccc1 [Example 24] (Cbz-[dV]-Phe-aldehyde) | indicated inhibition of Cathepsin Y activity | 
 | O=C[C@H](Cc1ccc(OCc2ccccc2)cc1)NC(=O)C(c1ccccc1)c1ccccc1 [Example 45] | indicated inhibition of Cathepsin Y activity | 
 | CSCC[C@@H](C=O)NC(=O)[C@@H](NC(=O)OCc1ccccc1)C(C)C [Example 47] (Cbz-Val-Met-aldehyde) | indicated inhibition of Cathepsin Y activity | 
 | O=C[C@H](Cc1ccccc1)NC(=O)Cc1ccccc1 [Example 59] | indicated inhibition of Cathepsin Y activity | 
 | O=C[C@H](Cc1ccccc1)NC(=O)C1c2ccccc2Oc2ccccc21 [Example 64] | indicated inhibition of Cathepsin Y activity | 
 | O=C[C@H](Cc1ccccc1)NC(=O)N(c1ccccc1)c1ccccc1 [Example 75] | indicated inhibition of Cathepsin Y activity | 
 | Cathepsin Y: novel carboxypeptidase having a molecular weight of approximately 31 kD and the amino acid sequence set forth in SEQ ID No. 3 |  | pH optimum for carboxypeptidase activity [2]: about 4.5; endopeptidase or aminopeptidase activity [3, 6]: No evidence of any endopeptidase or aminopeptidase activity; predominant proteolytic activity [3, 6]: carboxypeptidase activity; effect on various APP preparations [4]: without effect; activity with known synthetic substrates for Cathepsin B, L or S [5]: No significant activity
EGYYGNYGV | EGYYGNYGV |  | 
EGYYGNYGVY; also recorded: EGYYGNYGV | EGYYGNYGVYA |  | 
FFDEPNPGVT | FFDEPNPGVTIY |  | 
YKRDMVGGVVI; also recorded: YKRDMVGGVV | YKRDMVGGVVIA |  | 

Compound | cleavage product(s) of parent oligopeptide with Cathepsin Y [3] | inhibition of Cathepsin Y activity [1] | also measured
LFYDQSPTATI | LFYDQSPTAT; also recorded: LFYDQSPTA; also recorded: LFYDQSPT |  | 
